From ChEMBL document CHEMBL3588751, “A new antibacterial octaketide and cytotoxic phenylethanoid glycosides from Pogostemon cablin (Blanco) Benth” (Bioorg Med Chem Lett, 2015)
≈ marks a conversion by molar mass, not a printed value.

What was measured:
SK-MEL-2 = test: Cytotoxicity against human SK-MEL-2 cells assessed as inhibition of cell growth incubated for 48 hrs by SRB assay; format: functional, cell-based; conditions: SK-MEL-2, 48 h
Saccharomyces cerevisiae = test: Antimicrobial activity against Saccharomyces cerevisiae ATCC 9763 incubated for 48 hrs by broth dilution method; format: functional, organism-based; conditions: ATCC 9763, 48 h
A549 = test: Cytotoxicity against human A549 cells assessed as inhibition of cell growth incubated for 48 hrs by SRB assay; format: functional, cell-based; conditions: A549, 48 h
Staphylococcus aureus = test: Antimicrobial activity against Staphylococcus aureus BAA-2313 incubated for 48 hrs by broth dilution method; format: functional, organism-based; conditions: BAA-2313, 48 h
Bacillus subtilis = test: Antimicrobial activity against Bacillus subtilis ATCC 6633 incubated for 48 hrs by broth dilution method; format: functional, organism-based; conditions: ATCC 6633, 48 h
HCT-15 = test: Cytotoxicity against human HCT15 cells assessed as inhibition of cell growth incubated for 48 hrs by SRB assay; format: functional, cell-based; conditions: HCT-15, 48 h
SK-OV-3 = test: Cytotoxicity against human SKOV3 cells assessed as inhibition of cell growth incubated for 48 hrs by SRB assay; format: functional, cell-based; conditions: SK-OV-3, 48 h
Candida albicans = test: Antimicrobial activity against Candida albicans ATCC 10231 incubated for 48 hrs by broth dilution method; format: functional, organism-based; conditions: ATCC 10231, 48 h

Row | Compound | IC50 (SK-MEL-2) | IC50 (Saccharomyces cerevisiae) | IC50 (A549) | IC50 (Staphylococcus aureus) | MIC (Staphylococcus aureus) | IC50 (Bacillus subtilis) | MIC (Bacillus subtilis) | IC50 (HCT-15) | IC50 (SK-OV-3) | IC50 (Candida albicans) | MFC (Saccharomyces cerevisiae) | MFC (Candida albicans)
1 | C[C@@H]1O[C@@H](O[C@@H]2[C@@H](O)[C@H](OCCc3ccc(O)c(O)c3)O[C@H](CO)[C@@H]2OC(=O)/C=C/c2ccc(O)c(O)c2)[C@H](O)[C@H](O)[C@H]1O | 4.5 µM | > 200 µg/mL | 6.78 µM | 165 µg/mL (≈ 264 µM) | 200 µg/mL (≈ 320 µM) | 106 µg/mL (≈ 169 µM) | 150 µg/mL (≈ 240 µM) | 7.03 µM | 9.52 µM | > 200 µg/mL |  | 
2 | CC[C@@H](C)C(=O)c1c(O)cc(O)cc1CC(=O)O | > 30 µM | > 200 µg/mL | > 30 µM | 140 µg/mL (≈ 556 µM) | 200 µg/mL (≈ 793 µM) | 84.1 µg/mL (≈ 333 µM) | 150 µg/mL (≈ 595 µM) | > 30 µM | > 30 µM | > 200 µg/mL |  | 
3 | C[C@@H]1O[C@@H](O[C@@H]2[C@@H](O)[C@H](OCCc3ccc(O)c(O)c3)O[C@H](CO)[C@H]2OC(=O)/C=C/c2ccc(O)c(O)c2)[C@H](O)[C@H](O)[C@H]1O [ACETOSIDE] | 8.52 µM | > 200 µg/mL | 5.81 µM | 156 µg/mL (≈ 249 µM) | 200 µg/mL (≈ 320 µM) | 98.5 µg/mL (≈ 158 µM) | 150 µg/mL (≈ 240 µM) | 2.73 µM | 7.61 µM | > 200 µg/mL |  | 
4 | C[C@@H]1[C@H](O)[C@@H](C)/C=C/C=C/C=C/C=C/C=C/C=C/C=C/[C@H](O[C@@H]2O[C@H](C)[C@@H](O)[C@H](N)[C@@H]2O)C[C@@H]2O[C@](O)(C[C@@H](O)C[C@@H](O)[C@H](O)CC[C@@H](O)C[C@@H](O)CC(=O)O[C@H]1C)C[C@H](O)[C@H]2C(=O)O [AMPHOTERICIN B] |  | 0.5 µg/mL (≈ 0.541 µM) |  |  |  |  |  |  |  | 2.1 µg/mL (≈ 2.27 µM) | 5 µg/mL (≈ 5.41 µM) | 5 µg/mL (≈ 5.41 µM)
5 | COc1cccc2c1C(=O)c1c(O)c3c(c(O)c1C2=O)C[C@@](O)(C(=O)CO)C[C@@H]3O[C@H]1C[C@H](N)[C@H](O)[C@H](C)O1 [DOXORUBICIN] |  |  |  |  |  |  |  | 0.109 µM |  |  |  | 
6 | CN[C@@H]1[C@H](O[C@H]2[C@H](O[C@H]3[C@H](O)[C@@H](O)[C@H](N=C(N)N)[C@@H](O)[C@@H]3N=C(N)N)O[C@@H](C)[C@]2(O)C=O)O[C@@H](CO)[C@H](O)[C@H]1O.CN[C@@H]1[C@H](O[C@H]2[C@H](O[C@H]3[C@H](O)[C@@H](O)[C@H](N=C(N)N)[C@@H](O)[C@@H]3N=C(N)N)O[C@@H](C)[C@]2(O)C=O)O[C@@H](CO)[C@H](O)[C@H]1O.O=S(=O)(O)O.O=S(=O)(O)O.O=S(=O)(O)O [STREPTOMYCIN SULFATE] |  |  |  | 8.5 µg/mL | 10 µg/mL | 4.5 µg/mL | 5 µg/mL |  |  |  |  | 
